The results in this text go back to ChEMBL document CHEMBL1121811, “Synthesis and biological evaluation of certain 2'-deoxy-beta-D-ribo- and -beta-D-arabinofuranosyl nucleosides of purine-6-carboxamide and 4,8-diaminopyrimido[5,4-d]pyrimidine” (1981).

The test system of test [1] is Mus musculus. Nature of the test: Effect of compound on induction of cellular immunity was studied at different dose of 15 mg/kg (control = 12+/-0.2). It counts as functional.
In test [2] the test system is Mus musculus. Nature of the test: Compound was tested for the ability to suppress humoral immune response in mice treated for days -2,-1,and 0 at dose of 25 mg/kg (control = 9.5). The class given is functional.
Test [3] has as its system Mus musculus. Nature of the test: Compound was tested for the ability to suppress humoral immune response in mice treated for days 0,+1,and +2 at dose of 25 mg/kg (control = 7.0). It counts as functional.
For test [4], the system named is Mus musculus. Nature of the test: Compound was tested for the ability to suppress humoral immune response in mice treated for days 0,+1,and +2 at dose of 50 mg/kg (control = 8.9). The class given is functional.
Test [5] deals with Mus musculus. Nature of the test: Compound was tested for the ability to suppress humoral immune response in mice treated for days -2,-1,and 0 at dose of 50 mg/kg (control = 8.1). The class given is functional.
In test [6] the test system is Mus musculus. Nature of the test: Compound was tested for the ability to suppress humoral immune response in mice treated for days -2,-1,and 0 at dose of 100 mg/kg (control = 8.1). It counts as functional.
The test system of test [7] is Mus musculus. Nature of the test: Compound was tested for the ability to suppress humoral immune response in mice treated for days 0,+1,and +2 at dose of 100 mg/kg (control = 8.9). The class given is functional.
The test system of test [8] is Mus musculus. Nature of the test: Compound was tested for the ability to suppress humoral immune response in mice treated for days 0,+1,and +2 at dose of 25 mg/kg (control = 8.9).
Test [9] has as its system Mus musculus. Nature of the test: Compound was tested for the ability to suppress humoral immune response in mice treated for days -2,-1,and 0 at dose of 100 mg/kg (control = 10.3). The class given is functional.
Test [10] concerns Mus musculus. Nature of the test: Compound was tested for the ability to suppress humoral immune response in mice treated for days 0,+1,and +2 at dose of 180 mg/kg (control = 9.0). It counts as functional.
Test [11] has as its system Mus musculus. Nature of the test: Compound was tested for the ability to suppress humoral immune response in mice treated for days 0,+1,and +2 at dose of 180 mg/kg (control = 9.1). It counts as functional.
For test [12], the system named is Mus musculus. Nature of the test: Compound was tested for the ability to suppress humoral immune response in mice treated for days 0,+1,and +2 at dose of 100 mg/kg (control = 6.5). The class given is functional.
Test [13] concerns Mus musculus. Nature of the test: Compound was tested for the ability to suppress humoral immune response in mice treated for days 0,+1,and +2 at dose of 50 mg/kg (control = 6.5). The class given is functional.
In test [14] the test system is Mus musculus. Nature of the test: Compound was tested for the ability to suppress humoral immune response in mice treated for days -2,-1,and 0 at dose of 50 mg/kg (control = 10.3). The class given is functional.
Test [15] deals with Mus musculus. Nature of the test: Compound was tested for the ability to suppress humoral immune response in mice treated for days 0,+1,and +2 at dose of 50 mg/kg (control = 9.0). The class given is functional.
The test system of test [16] is Mus musculus. Nature of the test: Compound was tested for the ability to suppress humoral immune response in mice treated for days 0,+1,and +2 at dose of 100 mg/kg (control = 9.0). The class given is functional.
Test [17] relates to Mus musculus. Nature of the test: Compound was tested for the ability to suppress skin-graft rejection in mice treated daily from day of graft transfer until rejection at dose of 100 mg/kg (control = 12+/-0.21).
In test [18] the test system is Mus musculus. Nature of the test: Compound was tested for the ability to suppress humoral immune response in mice treated for days -2,-1,and 0 at dose of 100 mg/kg (control = 9.5). It counts as functional.
Test [19] relates to Mus musculus. Nature of the test: Compound was tested for the ability to suppress skin-graft rejection in mice treated daily from day of graft transfer until rejection at dose of 75 mg/kg (control = 12+/-0.21).
Test [20] relates to Mus musculus. Nature of the test: Effect of compound on induction of cellular immunity was studied at different dose of 50 mg/kg. (control = 12+/-0.21). It counts as functional.
Test [21] relates to Mus musculus. Nature of the test: Compound was tested for the ability to suppress humoral immune response in mice treated for days 0,+1,and +2 at dose of 100 mg/kg (control = 10.0).

Compound `Nc1ncnc2c(N[C@@H]3O[C@H](CO)[C@@H](O)[C@H]3O)ncnc12` had a mean survival time in the test with Mus musculus [1] of 21. Further, the Mean hemagglutination titers in the test with Mus musculus [2] is on record as 8.5; with Mus musculus [3], 0.

As to `Sc1ncnc2nc[nH]c12` [MERCAPTOPURINE ANHYDROUS], the Mean hemagglutination titers was 7.2 in the test on Mus musculus [4]; 7.5 in the test on Mus musculus [5]; 3.4 in the test with Mus musculus [6]; 4.1 with Mus musculus [7]; 7.5 in the test on Mus musculus [8].

Regarding `OC[C@H]1O[C@@H](n2cnc3c(S)ncnc32)[C@H](O)[C@@H]1O` [THIOINOSINE], the Mean hemagglutination titers is 8.3 in the test on Mus musculus [9]; 6.4 in the test on Mus musculus [10]; 8.7 in the test with Mus musculus [11]; 8.5 with Mus musculus [5]; 7.2 with Mus musculus [12]; 7.2 in the test on Mus musculus [13]. The Mean hemagglutination titers with Mus musculus [6] was 8.4; in the test on Mus musculus [14] it was 8.3; in the test on Mus musculus [15] it was 9.1; in the test on Mus musculus [16], 7.4.

`Nc1ccn([C@@H]2O[C@H](CO)[C@@H](O)[C@@H]2O)c(=O)n1` [CYTARABINE]: in the test on Mus musculus [3], the Mean hemagglutination titers is listed as 3.4.

In the case of `Nc1ncnc2c(N[C@@H]3O[C@H](CO)[C@@H](O)[C@@H]3O)ncnc12`, the mean survival time was found to be 16 in the test with Mus musculus [17], 13 in the test with Mus musculus [19] and 14 in the test on Mus musculus [20]. For the same compound, the Mean hemagglutination titers was 8.7 in the test on Mus musculus [18] and 11 in the test on Mus musculus [21].
